In article PMC6017873 (Molecules : A Journal of Synthetic Chemistry and Natural …, 2018):

Legend:
[1] = biological target: HDAC1 (Homo sapiens, UniProt Q13547); experiment: Selective in vitro HDAC activity assay, recombinant HDAC1; assay type: biochemical; details: 100 µM
Description: (§1) (a) In vitro total HDAC activity was evaluated using K-562 nuclear extracts in the presence of various concentrations of eurochevalierine. (b) Selective in vitro HDAC activity assays were carried out using selected recombinant HDAC proteins in the presence of various concentrations of eurochevalierine. Results are reported as percent of DMSO vehicle control and expressed as the mean ± SD of three independent experiments. * and ** indicate p < 0.05 and p < 0.01 versus untreated cells, respectively.

[2] = biological target: T1, HDAC8 (Homo sapiens, UniProt Q9BY41); experiment: Selective in vitro HDAC activity assay, recombinant HDAC8; assay type: biochemical; details: 100 µM
T1 sequence (Q9BY41 1-377): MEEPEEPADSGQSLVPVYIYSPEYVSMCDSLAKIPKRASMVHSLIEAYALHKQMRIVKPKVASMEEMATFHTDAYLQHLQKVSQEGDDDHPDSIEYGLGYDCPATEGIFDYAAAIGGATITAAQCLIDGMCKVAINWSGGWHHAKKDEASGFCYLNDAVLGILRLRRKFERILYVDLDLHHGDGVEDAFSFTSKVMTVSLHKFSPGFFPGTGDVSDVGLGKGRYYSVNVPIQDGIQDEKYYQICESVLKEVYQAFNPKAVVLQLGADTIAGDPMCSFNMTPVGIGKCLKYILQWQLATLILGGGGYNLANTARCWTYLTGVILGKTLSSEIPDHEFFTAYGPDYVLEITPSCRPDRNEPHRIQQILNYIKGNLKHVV
Description: as §1

[3] = biological target: T2, HDAC10 (Homo sapiens, UniProt Q969S8); experiment: Selective in vitro HDAC activity assay, recombinant HDAC10; assay type: biochemical; details: 100 µM
T2 sequence (Q969S8 1-669): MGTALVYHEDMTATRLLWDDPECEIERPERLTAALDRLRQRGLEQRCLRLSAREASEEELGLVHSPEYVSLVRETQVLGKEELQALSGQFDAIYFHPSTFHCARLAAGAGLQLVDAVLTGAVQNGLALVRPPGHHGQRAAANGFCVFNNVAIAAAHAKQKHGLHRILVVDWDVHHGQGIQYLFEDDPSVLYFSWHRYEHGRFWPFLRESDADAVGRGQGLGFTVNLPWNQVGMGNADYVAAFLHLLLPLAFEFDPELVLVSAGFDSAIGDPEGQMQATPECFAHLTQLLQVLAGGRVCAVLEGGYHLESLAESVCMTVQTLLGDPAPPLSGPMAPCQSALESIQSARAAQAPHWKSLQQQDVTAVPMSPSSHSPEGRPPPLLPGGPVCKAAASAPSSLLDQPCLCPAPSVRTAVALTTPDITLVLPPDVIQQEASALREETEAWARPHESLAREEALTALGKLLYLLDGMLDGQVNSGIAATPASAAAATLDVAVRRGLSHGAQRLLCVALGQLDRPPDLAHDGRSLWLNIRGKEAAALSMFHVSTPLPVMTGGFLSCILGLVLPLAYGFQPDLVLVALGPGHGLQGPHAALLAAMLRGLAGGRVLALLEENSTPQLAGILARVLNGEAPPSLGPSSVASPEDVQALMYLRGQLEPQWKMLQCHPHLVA
Description: as §1

[4] = test system: U-373 cells; experiment: Sub-G1 fraction by PI flow cytometry, U-373; assay type: cell-based, human; details: U-373, 50 µM, 72 h
Description: Figure 2 Effect of eurochevalierine on cell cycle distribution. Cells were treated with 50 µM eurochevalierine for 72 h and then stained with propidium iodide (PI), and DNA content was measured by flow cytometry. (a) Cell cycle distribution profile in A-549 cells. Results of three independent experiments are represented on the same graph. (b) Quantification of the number of cells in sub-G1 fraction as a percentage of the total cell population. Results are expressed as mean ± SD of at least three independent experiments.
Cells were collected, fixed, and stained with the APO AF TUNEL detection kit (BD, Erembodegem, Belgium) allowing analysis of both apoptosis and cell cycle at the same time. The experiment was conducted accordingly to the procedure of the manufacturer. Data were obtained through flow cytometry with a Cell Lab Quanta apparatus (Analis, Suarlee, Belgium).

[5] = biological target: T3, HDAC11 (Homo sapiens, UniProt Q96DB2); experiment: Selective in vitro HDAC activity assay, recombinant HDAC11; assay type: biochemical
T3 sequence (Q96DB2 1-347): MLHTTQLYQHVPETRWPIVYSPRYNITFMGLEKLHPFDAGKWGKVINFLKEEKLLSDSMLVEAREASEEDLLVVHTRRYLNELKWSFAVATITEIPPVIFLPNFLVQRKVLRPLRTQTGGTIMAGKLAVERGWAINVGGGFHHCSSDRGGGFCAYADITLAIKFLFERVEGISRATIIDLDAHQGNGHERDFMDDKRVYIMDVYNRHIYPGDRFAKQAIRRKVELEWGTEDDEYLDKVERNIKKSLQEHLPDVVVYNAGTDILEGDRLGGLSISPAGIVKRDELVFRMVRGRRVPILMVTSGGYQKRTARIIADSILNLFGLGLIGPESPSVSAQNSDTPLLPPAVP
Description: as §1

Chain of HDAC1 (Q13547 whole entry): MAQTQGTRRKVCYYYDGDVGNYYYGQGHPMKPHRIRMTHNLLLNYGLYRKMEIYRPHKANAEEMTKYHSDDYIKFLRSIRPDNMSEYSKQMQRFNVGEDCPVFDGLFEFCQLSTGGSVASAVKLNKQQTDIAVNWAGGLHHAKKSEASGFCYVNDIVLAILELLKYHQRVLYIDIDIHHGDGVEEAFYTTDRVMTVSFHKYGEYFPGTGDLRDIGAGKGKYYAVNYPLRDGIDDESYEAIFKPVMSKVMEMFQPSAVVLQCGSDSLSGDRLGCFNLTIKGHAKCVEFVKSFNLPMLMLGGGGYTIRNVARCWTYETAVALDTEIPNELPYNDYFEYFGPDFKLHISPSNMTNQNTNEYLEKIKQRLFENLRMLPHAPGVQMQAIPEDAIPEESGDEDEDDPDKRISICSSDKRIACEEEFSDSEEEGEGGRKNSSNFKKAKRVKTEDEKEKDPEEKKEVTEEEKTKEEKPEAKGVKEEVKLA

`C=C(C)[C@@H]1CC[C@@H](C)[C@@]2(O)[C@@H]1C=C(C)[C@@H](OC(C)=O)[C@@H]2OC(=O)[C@H](CC(=O)c1ccccc1NC)NC=O` [Eurochevalierine, eurochevalierine] was tested, and the “effect on HDAC1 deacetylase activity” value [1] was “without effect”, the “effect on HDAC8 deacetylase activity” value [2] was “without effect” and the “effect on HDAC10 deacetylase activity” value [3] was “without effect”. For the same compound, the sub-G1 fraction [4] was “did not increase the sub-G1 fraction” and the inhibition at 100 µM [5] was ~51%.
